Converted amounts (≈) assume the structure as drawn.
Columns and labels:
[1] = system: E. faecium (ciprofloxacin susceptible clinical isolate); assay: microbe, parasite or virus in culture; conditions: Enterococcus faecium
in vivo = conditions: male, CD-1, mouse, whole blood, iv, 50 mg/kg
M. luteus DSM1790 = assay: MIC determination (broth microdilution); type: cell-based, Micrococcus luteus; conditions: Micrococcus luteus, DSM1790
Experimental: (§1) 1.1.1 In vitro experiments
(§2) Determination of Minimal inhibitory concentrations (MIC)
(§3) Approved Standard M07-A9.1
(§4) CFU mL-1. […] Albicidin and […]
(§5) and serially diluted in DMSO (100%). […]
(§6) in 0.1 N HCL, respectively.
(§7) One row of each well plate served as a […]
(§8) sterility control (only MHB II-media). […]
(§9) adding 5 µL DMSO to several wells. […]
(§10) for growth inhibition by naked eye.
(§11) Microorganisms and Cell Cultures (DSMZ): […]

[2] = system: E. coli DSM 1116 + 50% Human Serum; assay: MIC determination in presence of 50% human serum; type: cell-based; conditions: Escherichia coli, DSM1116
Excerpt: This investigation was completed by assessment of the antibacterial activity in presence of human plasma (50%) (Table 1), since high plasma protein binding can severely impair antibacterial activity and thus efficacy.
as §1, §2, §3, §4, §5, §6, §7, §8, §9, §10, §11

[3] = system: A. baumannii (ciprofloxacin resistant isolate); assay: microbe, parasite or virus in culture; type: cell-based, Acinetobacter baumannii; conditions: Acinetobacter baumannii
Experimental: as §1, §2, §3, §4, §5, §6, §7, §8, §9, §10, §11
(§12) Dr. Werner (Robert-Koch-Institut, Wernigerode, Germany): […]
(§13) for the following 11 pathogenic isolates: […]

S. Typhimurium TA100 = assay: MIC determination (broth microdilution); type: cell-based, Salmonella typhimurium; conditions: Salmonella enterica, TYPHIMURIUM
Experimental: as §1, §2, §3, §4, §5, §6, §7, §8, §9, §10, §11

[4] = Pharmacokinetic study, i.v.; conditions: 50 mg kg^−1 i.v., after 24 h
[5] = system: P. aeruginosa (ciprofloxacin resistant clinical isolate); assay: microbe, parasite or virus in culture; type: cell-based; conditions: Pseudomonas aeruginosa
Experimental: as §1, §2, §3, §4, §5, §6, §7, §8, §9, §10, §11, §12, §13

[6] = system: E. faecium (ciprofloxacin resistant clinical isolate); assay: microbe, parasite or virus in culture; type: cell-based; conditions: Enterococcus faecium
Experimental: as §1, §2, §3, §4, §5, §6, §7, §8, §9, §10, §11, §12, §13

E. coli DNA gyrase = biological target: T1, E. coli DNA gyrase (Escherichia coli, UniProt P0AES4+P0AES6); assay: E. coli gyrase supercoiling inhibition assay; type: biochemical; set-up: key: ↑: for stronger inhibition; ≈: for equal inhibition; ↓: for diminished inhibition compared to albicidin 1; conditions: constant concentration of 45 nM, compared to albicidin 1
T1 construct: purchased inspiralis Limited, Norwich, UK
Experimental: Escherichia coli Gyrase Supercoiling Inhibition Assay
loaded on an agarose gel.
2-15. […] Addition of DNA
All derivatives were tested at a concentration of […]

in vitro = conditions: plasma, pH 7.4
Experimental: Determination of plasma stability
Human and murine plasma aliquots (Sigma-Aldrich, Taufkirchen, Germany) were thawed and subsequently centrifuged at 3000 rpm for 10 min at 4°C. Resulting supernatant was diluted in the same volume of phosphate buffer (pH 7.4) to obtain a plasma concentration of 50% (v/v). Stock solutions of […]
concentration of 20 µM (5% DMSO). Following incubation at 37°C ice-cold methanol containing 30% […]
were centrifuged at 4000 rpm for 20 min at 4°C and 100 µL of supernatant were directly transferred to a fresh MS-vial. Samples were analyzed by LC/MS-MS experiments. Quantification of remaining compounds was performed by an external calibration curve of standard solutions in the range of […]

[7] = system: Salmonella Kentucky (ciprofloxacin susceptible clinical isolate); assay: MIC, extended panel; type: cell-based; conditions: Salmonella enterica
Experimental: as §1, §2, §3, §4, §5, §6, §7, §8, §9, §10, §11, §12

[8] = system: E. coli (ciprofloxacin susceptible clinical isolate); assay: MIC, extended panel; type: cell-based; conditions: Escherichia coli
Experimental: as §1, §2, §3, §4, §5, §6, §7, §8, §9, §10, §11, §12

E. coli BW25113 = assay: MIC determination (broth microdilution); type: cell-based; conditions: Escherichia coli
Experimental: as §1, §2, §3, §4, §5, §6, §7, §8, §9, §10, §11

B. subtilis DSM 10 = assay: MIC determination (broth microdilution); type: cell-based; conditions: Bacillus subtilis, DSM10
Experimental: as §1, §2, §3, §4, §5, §6, §7, §8, §9, §10, §11

[9] = system: E. coli (ciprofloxacin resistant clinical isolate); assay: microbe, parasite or virus in culture; type: cell-based, Escherichia coli; conditions: Escherichia coli
Experimental: as §1, §2, §3, §4, §5, §6, §7, §8, §9, §10, §11, §12

[10] = Cell proliferation assay (HepG2 cells); conditions: human
Experimental: (§14) Cell proliferation assay (HepG2 cells)
(§15) The assay was performed by the company Eurofins (Taiwan). Cytotoxicity was representatively
(§16) according to a protocol by Ansar et al.27 This is in line with previously published cytotoxicity data on
(§17) GI = growth inhibition; TGI = total growth inhibition; LC = lethal concentration

HepG2 cells = assay: in vitro; conditions: human
Experimental: as §14, §15, §16, §17

M. phlei DSM 750 = assay: MIC determination (broth microdilution); type: cell-based, Mycobacterium phlei; conditions: Mycolicibacterium phlei, DSM750
Experimental: as §1, §2, §3, §4, §5, §6, §7, §8, §9, §10

E. coli DSM 1116 = assay: MIC determination (broth microdilution); type: cell-based, Escherichia coli; conditions: Escherichia coli, DSM1116
Experimental: as §1, §2, §3, §4, §5, §6, §7, §8, §9, §10, §11

[11] = system: S. aureus (ciprofloxacin resistant clinical isolate); assay: microbe, parasite or virus in culture; type: cell-based, Staphylococcus aureus; conditions: Staphylococcus aureus
Experimental: as §1, §2, §3, §4, §5, §6, §7, §8, §9, §10, §11, §12, §13

[12] = system: Salmonella Kentucky (ciprofloxacin resistant clinical isolate); assay: microbe, parasite or virus in culture; type: cell-based; conditions: Salmonella enterica
Experimental: as §1, §2, §3, §4, §5, §6, §7, §8, §9, §10, §11, §12

[13] = system: K. pneumoniae (ciprofloxacin resistant clinical isolate); assay: microbe, parasite or virus in culture; type: cell-based; conditions: Klebsiella pneumoniae
Experimental: as §1, §2, §3, §4, §5, §6, §7, §8, §9, §10, §11, §12

[14] = system: K. pneumoniae (ciprofloxacin susceptible clinical isolate); assay: MIC, extended panel; type: cell-based, Klebsiella pneumoniae; conditions: Klebsiella pneumoniae
Experimental: as §1, §2, §3, §4, §5, §6, §7, §8, §9, §10, §11, §12

[15] = system: S. aureus (ciprofloxacin susceptible clinical isolate); assay: MIC, extended panel; type: cell-based; conditions: Staphylococcus aureus
Experimental: as §1, §2, §3, §4, §5, §6, §7, §8, §9, §10, §11, §12, §13

Formulation studies = type: physicochemical; conditions: DMSO/PEG400 (10 : 90), 10 mg ml-1
Experimental: of preclinical formulations in a final concentration of 10 mg ml-1. All experimental procedures were carried out in cooperation with Pharmacelsus GmbH (Saarbrucken, Germany) according to Table S6.
1.1.2 Tolerability assessment and pharmacokinetic study
In vivo tolerability studies as well as determinations of pharmacokinetic parameters were carried out in cooperation with Pharmacelsus GmbH (Saarbrucken, Germany).
For tolerability assessment adult male CD-1 mice (RjOrl:SWISS, 7 weeks old) were purchased from Janvier Labs (France). For pharmacokinetic studies 6 weeks old, male CD-1 mice (RjOrl:SWISS, Janvier Labs, France) were used. The animals were allowed to acclimatize for at least seven days before the start of experiments. Housing was realized in a temperature-controlled room (20-24°C) and mice were exposed to a 12h light/dark cycle. Mice had access to food and water ad libitum throughout the study.
All experimental procedures were approved by and conducted in accordance with the regulations of local Animal Welfare authorities (Landesamt für Gesundheit und Verbraucherschutz, Abteilung Lebensmittel- und Veterinärwesen, Saarbrücken, Germany).

[16] = system: P. aeruginosa (ciprofloxacin susceptible clinical isolate); assay: MIC, extended panel; type: cell-based, Pseudomonas aeruginosa; conditions: Pseudomonas aeruginosa
Experimental: as §1, §2, §3, §4, §5, §6, §7, §8, §9, §10, §11, §12, §13

T1 sequence (P0AES4 whole entry, one chain of several): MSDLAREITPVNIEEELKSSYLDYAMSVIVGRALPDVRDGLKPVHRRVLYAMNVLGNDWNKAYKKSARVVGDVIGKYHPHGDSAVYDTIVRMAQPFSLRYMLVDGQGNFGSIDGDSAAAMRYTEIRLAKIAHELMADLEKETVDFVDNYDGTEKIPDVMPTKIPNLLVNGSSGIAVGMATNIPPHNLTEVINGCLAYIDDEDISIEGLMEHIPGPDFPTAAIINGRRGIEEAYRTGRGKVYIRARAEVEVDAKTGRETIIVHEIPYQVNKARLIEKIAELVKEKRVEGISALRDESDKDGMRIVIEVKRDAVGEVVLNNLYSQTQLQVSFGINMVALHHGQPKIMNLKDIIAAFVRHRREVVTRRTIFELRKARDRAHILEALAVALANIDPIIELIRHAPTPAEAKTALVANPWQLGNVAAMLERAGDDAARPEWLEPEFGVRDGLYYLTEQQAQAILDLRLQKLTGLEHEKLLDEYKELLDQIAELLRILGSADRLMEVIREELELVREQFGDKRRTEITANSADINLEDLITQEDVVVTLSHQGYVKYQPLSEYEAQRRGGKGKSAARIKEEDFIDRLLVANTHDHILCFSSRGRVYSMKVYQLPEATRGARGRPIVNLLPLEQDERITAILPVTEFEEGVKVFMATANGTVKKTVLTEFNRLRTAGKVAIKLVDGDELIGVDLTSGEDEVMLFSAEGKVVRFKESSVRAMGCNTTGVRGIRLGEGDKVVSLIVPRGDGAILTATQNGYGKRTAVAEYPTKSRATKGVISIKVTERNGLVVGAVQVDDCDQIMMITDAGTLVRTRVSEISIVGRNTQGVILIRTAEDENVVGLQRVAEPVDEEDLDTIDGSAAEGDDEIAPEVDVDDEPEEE

## COc1c(NC(=O)c2ccc(NC(=O)c3ccc(NC(=O)[C@H](Cc4c[nH]nn4)NC(=O)c4ccc(NC(=O)/C(C)=C/c5ccc(O)cc5)cc4)cc3)c(OC)c2O)ccc(C(=O)O)c1O [Compound 2, AzaHis-albicidin]
[1]
  MIC: 0.25 µg/mL (≈ 0.283 µM)
In vivo
  half-life: 10.1 h
M. luteus DSM1790
  MIC: 1 µg/mL (≈ 1.13 µM)
[2]
  MIC: 2 µg/mL
[3]
  MIC: 2 µg/mL (≈ 2.26 µM)
S. Typhimurium TA100
  MIC: 0.016 µg/mL (≈ 0.0181 µM)
[4]
  plasma level as multiple of MIC for E. coli: higher than 5 times MIC
[5]
  MIC: 8 µg/mL (≈ 9.04 µM)
[6]
  MIC: 64 µg/mL (≈ 72.3 µM)
E. coli DNA gyrase
  E. coli gyrase inhibition: ≈
In vitro; human
  half-life at 20 µM: > 4 h
In vitro; mouse
  half-life at 20 µM: 1.58 h
[7]
  MIC: 0.063 µg/mL (≈ 0.0712 µM)
[8]
  MIC: 0.016 µg/mL (≈ 0.0181 µM)
E. coli BW25113
  MIC: 0.016 µg/mL (≈ 0.0181 µM)
B. subtilis DSM 10
  MIC: 0.125 µg/mL (≈ 0.141 µM)
[9]
  MIC: 0.063 µg/mL (≈ 0.0712 µM)
[10]
  CC50: > 16 µM
  GI50: > 16 µM
HepG2 cells
  TGI (total growth inhibition): > 16 µM
M. phlei DSM 750
  MIC: 2 µg/mL (≈ 2.26 µM)
E. coli DSM 1116
  MIC: 0.016 µg/mL (≈ 0.0181 µM)
[11]
  MIC: 0.5 µg/mL (≈ 0.565 µM)
[12]
  MIC: 0.125 µg/mL (≈ 0.141 µM)
[13]
  MIC: ≥ 128 µg/mL
[14]
  MIC: 16 µg/mL (≈ 18.1 µM)
[15]
  MIC: 0.25 µg/mL (≈ 0.283 µM)
Formulation studies
  appearance in formulation: clear solution
[16]
  MIC: 4 µg/mL (≈ 4.52 µM)

From PMC8580050, “Improvement of the antimicrobial potency, pharmacokinetic and pharmacodynamic properties of albicidin by incorporation of nitrogen atoms” (Chemical Science, 2021)
